Test results taken from patent publication US8119998B2, “Methods and systems for in situ physicochemical property testing” (Pion, Inc., priority 2008, dated 2012).
Converted amounts (≈) assume the structure as drawn.

Test: Miniaturized rotating disk dissolution and solubility of pressed pellet, biexponential fit
Format: physicochemical
Conditions: pressed pellet 3.9 mm, five replicate profiles, 180 selected points, FIG. 12
Method: This example is based on the dissolution and solubility characteristics of the model drug carbamazepine, with data collected on a prototype instrument, utilizing a miniaturized rotating disk of pressed compound held as a pellet in a small stainless steel die. The average diameter of the pellets of material was measured to be 3.9 mm, corresponding to a nominal area of 0.12 cm^2, and the minimal amount of compound needed to make such pellets was about 5 mg, although more may be used. In this example, the solution volume was 15 mL, larger than the preferred volume of 3 mL. Over 1100 concentration measurements were acquired, in five replicate dissolution profiles. […] The powder “burst” would be associated with a high surface area, but would be limited to a small quantity of material: [formula] […] 2 with respect to time, evaluated at t=to, in the units of μg/min (with PABL in cm/s units), is DR^max=(Cpowder·Apowder+[…]·60 [3] The factor of 60 accounts for the conversion of ABL permeability into cm/min units. Intrinsic dissolution rate (IDR) is calculated as IDR=DR^max/Aeff, where Aeff is the effective area of the solid phase in contact with bulk solution. The effective surface area is defined as Aeff=δApowder+(1-δ)[…], where δ=[…]). The IDR is the maximum flux of material entering the solution phase through the interface solid-liquid interface (often evaluated at time near zero). […]

- IDR (intrinsic dissolution rate) (nominal area 0.12 cm^2, 15 mL): 25±1 μg/cm^2·min
- solubility (thermodynamic from solid, 15 mL, read-out: S (solubility)): 225 ± 6 µg/mL (≈ 952 µM)
Structure (SMILES): NC(=O)N1c2ccccc2C=Cc2ccccc21 [carbamazepine]
